Experimental findings from patent publication US9302991B2, “Arylamide derivatives as TTX-S blockers” (RaQualia Pharma Inc., priority 2010, dated 2016) are described below.

For one test, the target named is T1, human Nav1.3 channels (Homo sapiens, UniProt Q9NY46).
T1 construct: expressed in transfected cells; host or cells: HEK293
The test is described as follows: FRET assay, human Nav1.3 (EFS on FDSS). The class given is cell-based. To be noted: HEK293 cells expressing human Nav1.3, read-out: IC50 against Nav1.3. The procedure, abridged:
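HEK293 cells expressing the channel, loaded with 10 microM CC2-DMPE then 15 microM DiSBAC2(3) plus 0.555 mM VABSC-1 in pH 7.4 HEPES buffer at room temperature. Membrane potential changes evoked by electrical field stimulation after compound addition; IC50 from 440 nm-normalized FRET ratios.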

For another test, the target named is T2, human Nav1.7 channels (Homo sapiens, UniProt Q15858).
T2 construct: expressed in transfected cells; host or cells: CHO
T2 sequence (Q15858 whole entry): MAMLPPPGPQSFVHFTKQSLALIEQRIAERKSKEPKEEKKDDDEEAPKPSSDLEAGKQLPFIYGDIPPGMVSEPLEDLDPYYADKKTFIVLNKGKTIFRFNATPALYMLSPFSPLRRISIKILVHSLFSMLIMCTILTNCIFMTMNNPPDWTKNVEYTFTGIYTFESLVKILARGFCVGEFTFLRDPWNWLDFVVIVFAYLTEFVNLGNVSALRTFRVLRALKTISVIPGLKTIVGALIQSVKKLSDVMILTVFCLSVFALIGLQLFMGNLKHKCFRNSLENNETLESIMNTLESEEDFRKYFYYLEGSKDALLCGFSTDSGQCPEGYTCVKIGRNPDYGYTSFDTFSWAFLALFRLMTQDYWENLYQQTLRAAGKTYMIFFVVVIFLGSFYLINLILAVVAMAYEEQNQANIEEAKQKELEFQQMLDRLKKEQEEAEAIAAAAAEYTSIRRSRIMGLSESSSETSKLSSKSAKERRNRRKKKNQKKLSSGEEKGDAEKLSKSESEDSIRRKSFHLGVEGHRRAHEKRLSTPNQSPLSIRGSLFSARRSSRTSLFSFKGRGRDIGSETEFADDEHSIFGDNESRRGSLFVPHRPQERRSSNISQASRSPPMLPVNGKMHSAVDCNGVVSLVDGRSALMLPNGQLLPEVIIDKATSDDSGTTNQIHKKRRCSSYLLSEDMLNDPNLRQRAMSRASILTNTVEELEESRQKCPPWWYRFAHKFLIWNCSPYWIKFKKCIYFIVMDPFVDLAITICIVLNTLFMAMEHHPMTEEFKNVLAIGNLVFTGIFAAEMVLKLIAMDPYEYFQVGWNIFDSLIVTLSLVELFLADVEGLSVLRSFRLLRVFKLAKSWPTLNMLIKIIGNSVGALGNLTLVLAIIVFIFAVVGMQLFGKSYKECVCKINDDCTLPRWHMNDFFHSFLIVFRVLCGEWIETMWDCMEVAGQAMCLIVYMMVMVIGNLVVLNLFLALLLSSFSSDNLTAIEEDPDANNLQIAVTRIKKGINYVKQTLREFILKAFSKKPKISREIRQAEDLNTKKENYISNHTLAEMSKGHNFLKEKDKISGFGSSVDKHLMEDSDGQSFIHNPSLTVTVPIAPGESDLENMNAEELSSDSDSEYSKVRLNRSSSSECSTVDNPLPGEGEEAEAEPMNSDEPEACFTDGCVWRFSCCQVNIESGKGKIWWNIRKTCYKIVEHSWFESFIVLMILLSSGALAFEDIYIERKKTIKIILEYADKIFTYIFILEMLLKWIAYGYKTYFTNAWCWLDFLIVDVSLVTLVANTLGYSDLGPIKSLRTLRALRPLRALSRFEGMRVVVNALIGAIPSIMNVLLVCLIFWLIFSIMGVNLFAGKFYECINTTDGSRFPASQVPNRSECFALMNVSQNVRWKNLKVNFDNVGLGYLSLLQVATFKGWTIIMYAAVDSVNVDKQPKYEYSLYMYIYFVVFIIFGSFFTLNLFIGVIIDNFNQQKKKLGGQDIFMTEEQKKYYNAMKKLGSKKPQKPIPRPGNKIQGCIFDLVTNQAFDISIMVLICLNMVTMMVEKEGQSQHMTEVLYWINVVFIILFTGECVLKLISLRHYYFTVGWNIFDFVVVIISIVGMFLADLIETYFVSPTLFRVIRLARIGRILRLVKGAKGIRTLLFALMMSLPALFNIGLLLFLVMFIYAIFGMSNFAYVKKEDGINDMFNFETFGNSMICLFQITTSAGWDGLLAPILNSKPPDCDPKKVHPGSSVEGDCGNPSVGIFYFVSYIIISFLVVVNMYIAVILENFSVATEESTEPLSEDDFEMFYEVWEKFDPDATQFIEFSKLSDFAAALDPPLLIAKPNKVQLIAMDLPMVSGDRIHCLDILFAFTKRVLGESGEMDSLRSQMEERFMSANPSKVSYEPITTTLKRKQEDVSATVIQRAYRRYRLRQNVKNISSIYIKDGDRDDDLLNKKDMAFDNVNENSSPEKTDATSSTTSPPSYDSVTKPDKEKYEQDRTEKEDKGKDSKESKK
In words: FRET assay, human Nav1.7 (EFS on FDSS). The class given is cell-based. To be noted: CHO cells expressing human Nav1.7, read-out: IC50 against Nav1.7. The procedure, abridged: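 IC50 was derived from normalized 440 nm fluorescence ratios of the EFS-evoked membrane-potential response read on FDSS. Recombinant CHO cells were sequentially dye-loaded with coumarin/oxonol FRET pair at room temperature in pH 7.4 buffer before compound addition.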

A word on the IC50: it is the concentration needed to halve the response being measured.

Structures are written as SMILES.

T1 sequence (Q9NY46 whole entry): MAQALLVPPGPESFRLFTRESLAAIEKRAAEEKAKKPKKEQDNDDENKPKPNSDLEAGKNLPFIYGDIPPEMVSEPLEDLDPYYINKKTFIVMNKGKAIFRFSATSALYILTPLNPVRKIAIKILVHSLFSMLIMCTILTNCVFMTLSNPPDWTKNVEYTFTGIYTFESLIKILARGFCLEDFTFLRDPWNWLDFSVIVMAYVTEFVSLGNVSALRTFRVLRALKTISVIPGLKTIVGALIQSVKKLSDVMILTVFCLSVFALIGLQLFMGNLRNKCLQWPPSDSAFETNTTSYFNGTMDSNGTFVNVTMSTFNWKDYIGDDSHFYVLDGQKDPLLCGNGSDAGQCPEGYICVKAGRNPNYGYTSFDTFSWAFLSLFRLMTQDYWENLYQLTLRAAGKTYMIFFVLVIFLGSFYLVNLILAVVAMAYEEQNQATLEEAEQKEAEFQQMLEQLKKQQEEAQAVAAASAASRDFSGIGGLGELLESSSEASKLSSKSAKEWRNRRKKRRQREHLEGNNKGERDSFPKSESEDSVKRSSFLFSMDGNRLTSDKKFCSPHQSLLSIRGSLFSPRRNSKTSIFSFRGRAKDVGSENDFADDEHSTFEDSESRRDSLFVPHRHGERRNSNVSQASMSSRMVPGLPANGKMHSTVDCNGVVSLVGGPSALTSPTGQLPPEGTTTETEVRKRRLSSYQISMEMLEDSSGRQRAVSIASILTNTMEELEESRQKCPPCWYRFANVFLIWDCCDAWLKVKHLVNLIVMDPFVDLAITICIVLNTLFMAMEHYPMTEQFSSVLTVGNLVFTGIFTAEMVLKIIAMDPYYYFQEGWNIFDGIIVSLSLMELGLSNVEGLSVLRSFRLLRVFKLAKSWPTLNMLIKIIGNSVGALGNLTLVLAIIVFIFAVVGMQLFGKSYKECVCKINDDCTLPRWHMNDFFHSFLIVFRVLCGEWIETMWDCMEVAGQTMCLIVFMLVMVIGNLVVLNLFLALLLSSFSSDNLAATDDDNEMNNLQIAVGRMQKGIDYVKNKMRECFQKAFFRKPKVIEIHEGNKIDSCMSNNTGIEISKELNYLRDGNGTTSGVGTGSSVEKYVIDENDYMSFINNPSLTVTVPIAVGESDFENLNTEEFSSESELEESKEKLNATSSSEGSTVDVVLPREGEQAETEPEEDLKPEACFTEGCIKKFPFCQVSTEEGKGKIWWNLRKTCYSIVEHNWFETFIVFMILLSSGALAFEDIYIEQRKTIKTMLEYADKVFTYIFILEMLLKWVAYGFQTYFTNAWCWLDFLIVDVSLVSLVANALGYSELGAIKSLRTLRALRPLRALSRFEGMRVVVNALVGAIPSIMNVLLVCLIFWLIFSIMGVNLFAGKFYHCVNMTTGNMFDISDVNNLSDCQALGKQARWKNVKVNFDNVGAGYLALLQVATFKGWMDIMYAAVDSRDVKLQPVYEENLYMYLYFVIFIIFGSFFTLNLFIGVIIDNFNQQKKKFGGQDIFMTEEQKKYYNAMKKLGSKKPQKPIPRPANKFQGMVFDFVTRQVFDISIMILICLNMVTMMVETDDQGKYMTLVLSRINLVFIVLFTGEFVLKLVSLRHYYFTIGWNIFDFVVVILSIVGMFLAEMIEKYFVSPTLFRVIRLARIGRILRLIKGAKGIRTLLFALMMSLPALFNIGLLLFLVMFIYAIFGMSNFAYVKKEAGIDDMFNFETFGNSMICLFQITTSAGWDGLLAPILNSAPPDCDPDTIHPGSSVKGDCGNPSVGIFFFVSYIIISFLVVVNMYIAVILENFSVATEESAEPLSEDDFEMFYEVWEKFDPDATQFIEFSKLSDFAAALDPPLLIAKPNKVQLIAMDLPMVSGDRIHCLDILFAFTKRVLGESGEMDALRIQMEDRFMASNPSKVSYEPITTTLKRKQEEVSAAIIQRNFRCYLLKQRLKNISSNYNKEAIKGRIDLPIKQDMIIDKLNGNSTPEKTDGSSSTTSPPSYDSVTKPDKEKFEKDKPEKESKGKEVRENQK

Turning to `CC(C)C(=O)Nc1cc(C(=O)NCc2cccc(OC(F)(F)F)c2)ccn1` [Example 527, 2-isobutyramido-N-(3-(trifluoromethoxy)benzyl)isonicotinamide], the IC50 at human Nav1.3 channels and at human Nav1.7 channels was less than 1 µM each time.

As for `Cc1cc(C(=O)NCc2cccc(OC(F)(F)F)c2)cc(NC(=O)C(C)C)n1` [Example 528, 2-isobutyramido-6-methyl-N-(3-(trifluoromethoxy)benzyl)isonicotinamide], the 50% inhibitory concentration (IC50) at human Nav1.3 channels and on human Nav1.7 channels was less than 1 µM each time.

On to `CC(C)C(=O)Nc1cc(C(=O)NCc2cccc(C(F)(F)F)c2)ccn1` [Example 533, 2-isobutyramido-N-(3-(trifluoromethyl)benzyl)isonicotinamide], for which the IC50 at human Nav1.3 channels and on human Nav1.7 channels was less than 1 µM each time.

Turning to `Cc1cc(C(=O)NCc2cccc(C(F)(F)F)c2)cc(NC(=O)C(C)C)n1` [Example 534, 2-isobutyramido-6-methyl-N-(3-(trifluoromethyl)benzyl)isonicotinamide], the IC50 at human Nav1.3 channels and at human Nav1.7 channels was less than 1 µM each time.

`Cc1cc(CNC(=O)c2ccnc(NC(=O)C3CC3)n2)cnc1OCC(F)(F)F` [Example 564, 2-(cyclopropanecarboxamido)-N-((5-methyl-6-(2,2,2-trifluoroethoxy)pyridin-3-yl)methyl)pyrimidine-4-carboxamide]: the IC50 at human Nav1.3 channels and at human Nav1.7 channels was less than 1 µM throughout.

As to `CC(=O)Nc1cc(C(=O)NCc2cc(C)cc(OC(F)(F)F)c2)ccn1` [Example 597, 2-acetamido-N-(3-methyl-5-(trifluoromethoxy)benzyl)isonicotinamide], the IC50 on human Nav1.3 channels and on human Nav1.7 channels was less than 1 µM in each case.

On to `CCC(=O)Nc1cc(C(=O)NCc2cc(C)cc(OC(F)(F)F)c2)cc(C)n1` [Example 600, 2-methyl-N-(3-methyl-5-(trifluoromethoxy)benzyl)-6-propionamidoisonicotinamide], for which the concentration for half-maximal inhibition (IC50) on human Nav1.3 channels and at human Nav1.7 channels was less than 1 µM throughout.

Consider `CC(=O)Nc1cc(C(=O)NCc2cc(C)cc(OC(F)(F)F)c2)cc(C)n1` [Example 602, 2-acetamido-6-methyl-N-(3-methyl-5-(trifluoromethoxy)benzyl)isonicotinamide], for which the 50% inhibitory concentration (IC50) at human Nav1.3 channels and on human Nav1.7 channels was less than 1 µM each time.

As to `CCC(=O)Nc1cc(C(=O)NCc2ccc(OCC(F)(F)C(F)(F)F)nc2)cc(C)n1` [Example 643, 2-methyl-N-((6-(2,2,3,3,3-pentafluoropropoxy)pyridin-3-yl)methyl)-6-propionamidoisonicotinamide], the IC50 at human Nav1.3 channels and on human Nav1.7 channels was less than 1 µM throughout.

With `O=C(NCc1cnc(OCC(F)F)c(Cl)c1)c1ccnc(NC(=O)C2CC2)n1` [Example 707, N-((5-chloro-6-(2,2-difluoroethoxy)pyridin-3-yl)methyl)-2-(cyclopropanecarboxamido)pyrimidine-4-carboxamide], the IC50 at human Nav1.3 channels and at human Nav1.7 channels was less than 1 µM in each case.

Turning to `CC(=O)Nc1cc(C(=O)NCc2cccc(OC(F)(F)F)c2F)cc(C)n1` [Example 751, 2-acetamido-N-(2-fluoro-3-(trifluoromethoxy)benzyl)-6-methylisonicotinamide], the IC50 at human Nav1.3 channels and at human Nav1.7 channels was less than 1 µM each time.

For `CCCC(=O)Nc1cc(C(=O)NCc2cnc(OCC(F)F)c(C)c2)ccn1` [Example 757, 2-butyramido-N-((6-(2,2-difluoroethoxy)-5-methylpyridin-3-yl)methyl)isonicotinamide], the IC50 on human Nav1.3 channels and at human Nav1.7 channels was less than 1 µM throughout.

Turning to `CC(=O)Nc1cc(C(=O)NCc2cnc(OCC(F)(F)F)c(Br)c2)ccn1` [Example 762, 2-acetamido-N-((5-bromo-6-(2,2,2-trifluoroethoxy)pyridin-3-yl)methyl)isonicotinamide], the IC50 on human Nav1.3 channels and at human Nav1.7 channels was less than 1 µM each time.

Take `Cc1cc(C(=O)NCc2ccc(OCC(F)(F)F)c(C)c2)nc(NC(=O)C2CC2)n1` [Example 780, 2-(cyclopropanecarboxamido)-6-methyl-N-(3-methyl-4-(2,2,2-trifluoroethoxy)benzyl)pyrimidine-4-carboxamide]: the IC50 on human Nav1.3 channels and at human Nav1.7 channels was less than 1 µM each time.

As to `CC(=O)Nc1cc(C(=O)NCc2ccc(OCC(F)(F)F)c(C)c2)ccn1` [Example 788, 2-acetamido-N-(3-methyl-4-(2,2,2-trifluoroethoxy)benzyl)isonicotinamide], the IC50 at human Nav1.3 channels and on human Nav1.7 channels was less than 1 µM each time.

For the compound `CCC(=O)Nc1cc(C(=O)NCc2ccc(OCC(F)(F)F)c(C)c2)ccn1` [Example 789, N-(3-methyl-4-(2,2,2-trifluoroethoxy)benzyl)-2-propionamidoisonicotinamide], the IC50 on human Nav1.3 channels and at human Nav1.7 channels was less than 1 µM in each case.

Consider `Cc1cc(CNC(=O)c2ccnc(NC(=O)C3CC3)c2)ccc1OCC(F)(F)F` [Example 790, 2-(cyclopropanecarboxamido)-N-(3-methyl-4-(2,2,2-trifluoroethoxy)benzyl)isonicotinamide], for which the IC50 at human Nav1.3 channels and on human Nav1.7 channels was less than 1 µM in each case.

Take `Cc1cc(CNC(=O)c2ccnc(NC(=O)C(C)C)c2)ccc1OCC(F)(F)F` [Example 791, 2-isobutyramido-N-(3-methyl-4-(2,2,2-trifluoroethoxy)benzyl)isonicotinamide]: the IC50 at human Nav1.3 channels and on human Nav1.7 channels was less than 1 µM in each case.

With `CC(=O)Nc1cc(C(=O)NCc2ccc(OCC(F)(F)F)c(C)c2)cc(C)n1` [Example 792, 2-acetamido-6-methyl-N-(3-methyl-4-(2,2,2-trifluoroethoxy)benzyl)isonicotinamide], the IC50 at human Nav1.3 channels and at human Nav1.7 channels was less than 1 µM each time.

On to `CCC(=O)Nc1cc(C(=O)NCc2ccc(OCC(F)(F)F)c(C)c2)cc(C)n1` [Example 793, 2-methyl-N-(3-methyl-4-(2,2,2-trifluoroethoxy)benzyl)-6-propionamidoisonicotinamide], for which the IC50 on human Nav1.3 channels and at human Nav1.7 channels was less than 1 µM in each case.

As to `Cc1cc(C(=O)NCc2ccc(OCC(F)(F)F)c(C)c2)cc(NC(=O)C(C)C)n1` [Example 794, 2-isobutyramido-6-methyl-N-(3-methyl-4-(2,2,2-trifluoroethoxy)benzyl)isonicotinamide], the IC50 at human Nav1.3 channels and at human Nav1.7 channels was less than 1 µM throughout.

`CC(=O)Nc1cc(C(=O)NCc2ccc(OC(F)(F)F)c(C)c2)ccn1` [Example 804, 2-acetamido-N-(3-methyl-4-(trifluoromethoxy)benzyl)isonicotinamide]: the IC50 on human Nav1.3 channels and at human Nav1.7 channels was less than 1 µM in each case.

In the case of `CCC(=O)Nc1cc(C(=O)NCc2ccc(OC(F)(F)F)c(C)c2)ccn1` [Example 805, N-(3-methyl-4-(trifluoromethoxy)benzyl)-2-propionamidoisonicotinamide], the IC50 at human Nav1.3 channels and on human Nav1.7 channels was less than 1 µM throughout.

Regarding `Cc1cc(CNC(=O)c2ccnc(NC(=O)C3CC3)c2)ccc1OC(F)(F)F` [Example 806, 2-(cyclopropanecarboxamido)-N-(3-methyl-4-(trifluoromethoxy)benzyl)isonicotinamide], the 50% inhibitory concentration (IC50) at human Nav1.3 channels and at human Nav1.7 channels was less than 1 µM in each case.

As for `Cc1cc(CNC(=O)c2ccnc(NC(=O)C(C)C)c2)ccc1OC(F)(F)F` [Example 807, 2-isobutyramido-N-(3-methyl-4-(trifluoromethoxy)benzyl)isonicotinamide], the 50% inhibitory concentration (IC50) at human Nav1.3 channels and on human Nav1.7 channels was less than 1 µM each time.
